Measured values as given in PubChem BioAssay (NCI).
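48-hour exposure; five concentrations; linearly interpolated endpoints. Definition used: TGI = concentration required for complete inhibition of growth.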

Tests used:
Test in all cases: NCI anticancer screen, dose series, 48 h
SK-MEL-5 melanoma = test system: SK-MEL-5 melanoma
MALME-3M melanoma = test system: MALME-3M melanoma
OVCAR-8 ovarian = test system: OVCAR-8 ovarian
SW-620 colon = test system: SW-620 colon
EKVX NSCLC = test system: EKVX NSCLC
RPMI-8226 leukemia = test system: RPMI-8226 leukemia
LOX IMVI melanoma = test system: LOX IMVI melanoma
UACC-257 melanoma = test system: UACC-257 melanoma
M19-MEL melanoma = test system: M19-MEL melanoma
NCI-H23 lung = test system: NCI-H23 lung
NCI-H226 lung = test system: NCI-H226 lung
OVCAR-3 ovarian = test system: OVCAR-3 ovarian
SF-539 CNS = test system: SF-539 CNS
SK-OV-3 ovarian = test system: SK-OV-3 ovarian
A498 renal = test system: A498 renal
XF 498 CNS = test system: XF 498 CNS
SK-MEL-2 melanoma = test system: SK-MEL-2 melanoma
A549 NSCLC = test system: A549 NSCLC
SNB-19 CNS = test system: SNB-19 CNS
MOLT-4 leukemia = test system: MOLT-4 leukemia
U251 CNS = test system: U251 CNS
DMS 273 small cell lung = test system: DMS 273 small cell lung
SNB-75 CNS = test system: SNB-75 CNS
DMS 114 small cell lung = test system: DMS 114 small cell lung
SN12C renal = test system: SN12C renal
OVCAR-5 ovarian = test system: OVCAR-5 ovarian
K-562 leukemia = test system: K-562 leukemia
NCI-H460 lung = test system: NCI-H460 lung
DLD-1 colon = test system: DLD-1 colon
KM20L2 colon = test system: KM20L2 colon
HOP-18 NSCLC = test system: HOP-18 NSCLC
HOP-62 NSCLC = test system: HOP-62 NSCLC
COLO 205 colon = test system: COLO 205 colon
NCI-H522 lung = test system: NCI-H522 lung
RXF 393 renal = test system: RXF 393 renal
HCT-116 colon = test system: HCT-116 colon
KM12 colon = test system: KM12 colon
ACHN renal = test system: ACHN renal
786-0 renal = test system: 786-0 renal
SR leukemia = test system: SR leukemia
UACC-62 melanoma = test system: UACC-62 melanoma
SK-MEL-28 melanoma = test system: SK-MEL-28 melanoma
IGROV1 ovarian = test system: IGROV1 ovarian
LXFL 529 NSCLC = test system: LXFL 529 NSCLC
SNB-78 CNS = test system: SNB-78 CNS
HCT-15 colon = test system: HCT-15 colon
CCRF-CEM leukemia = test system: CCRF-CEM leukemia
SF-295 CNS = test system: SF-295 CNS
UO-31 renal = test system: UO-31 renal
HCC-2998 colon = test system: HCC-2998 colon
TK-10 renal = test system: TK-10 renal
M14 melanoma = test system: M14 melanoma
HL-60(TB) leukemia = test system: HL-60(TB) leukemia
HT29 colon = test system: HT29 colon
RXF-631 renal = test system: RXF-631 renal
HOP-92 NSCLC = test system: HOP-92 NSCLC
SF-268 CNS = test system: SF-268 CNS
CAKI-1 renal = test system: CAKI-1 renal
OVCAR-4 ovarian = test system: OVCAR-4 ovarian

Structure (SMILES): CC1CC[P+](c2ccccc2)(c2ccccc2)CC1
- TGI (SK-MEL-5 melanoma): 51.1 µM
- TGI (MALME-3M melanoma): > 100 µM
- TGI (OVCAR-8 ovarian): > 100 µM
- TGI (SW-620 colon): > 100 µM
- TGI (EKVX NSCLC): > 100 µM
- TGI (RPMI-8226 leukemia): > 100 µM
- TGI (LOX IMVI melanoma): > 100 µM
- TGI (UACC-257 melanoma): > 100 µM
- TGI (M19-MEL melanoma): > 100 µM
- TGI (NCI-H23 lung): > 100 µM
- TGI (NCI-H226 lung): > 100 µM
- TGI (OVCAR-3 ovarian): > 100 µM
- TGI (SF-539 CNS): > 100 µM
- TGI (SK-OV-3 ovarian): > 100 µM
- TGI (A498 renal): > 100 µM
- TGI (XF 498 CNS): 77.4 µM
- TGI (SK-MEL-2 melanoma): > 100 µM
- TGI (A549 NSCLC): > 100 µM
- TGI (SNB-19 CNS): > 100 µM
- TGI (MOLT-4 leukemia): > 100 µM
- TGI (U251 CNS): > 100 µM
- TGI (DMS 273 small cell lung): > 100 µM
- TGI (SNB-75 CNS): > 100 µM
- TGI (DMS 114 small cell lung): > 100 µM
- TGI (SN12C renal): > 100 µM
- TGI (OVCAR-5 ovarian): > 100 µM
- TGI (K-562 leukemia): > 100 µM
- TGI (NCI-H460 lung): > 100 µM
- TGI (DLD-1 colon): > 100 µM
- TGI (KM20L2 colon): > 100 µM
- TGI (HOP-18 NSCLC): > 100 µM
- TGI (HOP-62 NSCLC): > 100 µM
- TGI (COLO 205 colon): > 100 µM
- TGI (NCI-H522 lung): > 100 µM
- TGI (RXF 393 renal): > 100 µM
- TGI (HCT-116 colon): > 100 µM
- TGI (KM12 colon): > 100 µM
- TGI (ACHN renal): > 100 µM
- TGI (786-0 renal): > 100 µM
- TGI (SR leukemia): > 100 µM
- TGI (UACC-62 melanoma): > 100 µM
- TGI (SK-MEL-28 melanoma): > 100 µM
- TGI (IGROV1 ovarian): > 100 µM
- TGI (LXFL 529 NSCLC): > 100 µM
- TGI (SNB-78 CNS): > 100 µM
- TGI (HCT-15 colon): > 100 µM
- TGI (CCRF-CEM leukemia): > 100 µM
- TGI (SF-295 CNS): > 100 µM
- TGI (UO-31 renal): > 100 µM
- TGI (HCC-2998 colon): > 100 µM
- TGI (TK-10 renal): > 100 µM
- TGI (M14 melanoma): > 100 µM
- TGI (HL-60(TB) leukemia): > 100 µM
- TGI (HT29 colon): > 100 µM

Structure (SMILES): Cc1ccccc1C1CC(c2ccccc2)=NO1 (centres undefined)
- TGI (SK-MEL-5 melanoma): > 100 µM
- TGI (MALME-3M melanoma): > 100 µM
- TGI (OVCAR-8 ovarian): > 100 µM
- TGI (SW-620 colon): > 100 µM
- TGI (EKVX NSCLC): > 100 µM
- TGI (RPMI-8226 leukemia): > 100 µM
- TGI (UACC-257 melanoma): > 100 µM
- TGI (RXF-631 renal): > 100 µM
- TGI (HOP-92 NSCLC): > 100 µM
- TGI (NCI-H23 lung): > 100 µM
- TGI (NCI-H226 lung): > 100 µM
- TGI (SF-268 CNS): > 100 µM
- TGI (OVCAR-3 ovarian): > 100 µM
- TGI (SF-539 CNS): > 100 µM
- TGI (SK-OV-3 ovarian): > 100 µM
- TGI (A498 renal): > 100 µM
- TGI (SK-MEL-2 melanoma): > 100 µM
- TGI (A549 NSCLC): > 100 µM
- TGI (SNB-19 CNS): > 100 µM
- TGI (MOLT-4 leukemia): > 100 µM
- TGI (CAKI-1 renal): > 100 µM
- TGI (U251 CNS): > 100 µM
- TGI (DMS 273 small cell lung): > 100 µM
- TGI (SNB-75 CNS): > 100 µM
- TGI (DMS 114 small cell lung): > 100 µM
- TGI (SN12C renal): > 100 µM
- TGI (OVCAR-5 ovarian): > 100 µM
- TGI (K-562 leukemia): > 100 µM
- TGI (NCI-H460 lung): > 100 µM
- TGI (DLD-1 colon): > 100 µM
- TGI (KM20L2 colon): > 100 µM
- TGI (HOP-18 NSCLC): > 100 µM
- TGI (OVCAR-4 ovarian): > 100 µM
- TGI (HOP-62 NSCLC): > 100 µM
- TGI (COLO 205 colon): > 100 µM
- TGI (NCI-H522 lung): > 100 µM
- TGI (HCT-116 colon): > 100 µM
- TGI (KM12 colon): > 100 µM
- TGI (ACHN renal): > 100 µM
- TGI (786-0 renal): > 100 µM
- TGI (SR leukemia): > 100 µM
- TGI (UACC-62 melanoma): > 100 µM
- TGI (SK-MEL-28 melanoma): > 100 µM
- TGI (IGROV1 ovarian): > 100 µM
- TGI (LXFL 529 NSCLC): > 100 µM
- TGI (SNB-78 CNS): > 100 µM
- TGI (HCT-15 colon): > 100 µM
- TGI (CCRF-CEM leukemia): > 100 µM
- TGI (SF-295 CNS): > 100 µM
- TGI (UO-31 renal): > 100 µM
- TGI (HCC-2998 colon): > 100 µM
- TGI (TK-10 renal): > 100 µM
- TGI (M14 melanoma): > 100 µM
- TGI (HL-60(TB) leukemia): > 100 µM
- TGI (HT29 colon): > 100 µM
